The Ki is a dissociation constant, usually derived from enzyme kinetics or from competition with a known ligand.

This is an account of results in patent US20090149495A1, “COMPOUNDS” (priority 2005, published 2009).

The target of one assay is T1, mGluR1 (Rattus norvegicus, UniProt P23385).
T1 construct: rat cerebellar membrane preaparation was used; from tissue; host or cells: rat cerebellum (membrane preparation)
Kind of assay: MGluR1 receptor binding test ([3H]R214127 displacement, rat cerebellar membrane). As to conditions: rat cerebellar membranes; radioligand [3H]R214127 3 nM; read-out: mGlu1 Ki. As to the method:
MGluR1 receptor binding tests were performed according to modified method of Lavreysen et al. (Mol.Pharm., 2003, 63, 1082). Based on the high homology between the human and rat mGluR1 receptors, rat cerebellar membrane preaparation was used to determine the binding characteristics of reference compounds and novel compounds to the rat mGluR1. As radioligand [3H]R214127 (3 nM) was used and the nonspecific binding was determined in the presence of 1 μM of R214127.
IC-50 values were determined from displacement curves by nonlinear regression analysis and were converted by equation method of Cheng and Prusoff (Biochem. Pharmacol., 1973, 22, 3099) to Ki values.

For another assay, the target named is mGluR5. Put plainly: MGluR5 receptor binding test ([3H]-M-MPEP displacement). Details: species or system rat or human. Conditions: radioligand [3H]-M-MPEP 2 nM; table does not say rat cortical membranes or hmGluR5a cells; read-out: mGlu5 Ki. As to the method: MGluR5 receptor binding was determined according to Gasparini et.al. (Bioorg. Med. Chem. Lett. 2000, 12:407-409) with modifications. Rat cerebro-cortical membrane preparation was used to determine the binding characteristics of reference compounds and novel compounds to the rat mGluR5. The A18 cell line expressing hmGluR5a (purchased from Euroscreen) was used to determine binding characteristics of the chemical compounds to the human mGluR5a receptor. As radioligand [3H]-M-MPEP (2 nM) was used. The nonspecific binding was determined in the presence of 10 μM M-MPEP.

Bounds are passed on as bounds.

T1 sequence (P23385 19-1199): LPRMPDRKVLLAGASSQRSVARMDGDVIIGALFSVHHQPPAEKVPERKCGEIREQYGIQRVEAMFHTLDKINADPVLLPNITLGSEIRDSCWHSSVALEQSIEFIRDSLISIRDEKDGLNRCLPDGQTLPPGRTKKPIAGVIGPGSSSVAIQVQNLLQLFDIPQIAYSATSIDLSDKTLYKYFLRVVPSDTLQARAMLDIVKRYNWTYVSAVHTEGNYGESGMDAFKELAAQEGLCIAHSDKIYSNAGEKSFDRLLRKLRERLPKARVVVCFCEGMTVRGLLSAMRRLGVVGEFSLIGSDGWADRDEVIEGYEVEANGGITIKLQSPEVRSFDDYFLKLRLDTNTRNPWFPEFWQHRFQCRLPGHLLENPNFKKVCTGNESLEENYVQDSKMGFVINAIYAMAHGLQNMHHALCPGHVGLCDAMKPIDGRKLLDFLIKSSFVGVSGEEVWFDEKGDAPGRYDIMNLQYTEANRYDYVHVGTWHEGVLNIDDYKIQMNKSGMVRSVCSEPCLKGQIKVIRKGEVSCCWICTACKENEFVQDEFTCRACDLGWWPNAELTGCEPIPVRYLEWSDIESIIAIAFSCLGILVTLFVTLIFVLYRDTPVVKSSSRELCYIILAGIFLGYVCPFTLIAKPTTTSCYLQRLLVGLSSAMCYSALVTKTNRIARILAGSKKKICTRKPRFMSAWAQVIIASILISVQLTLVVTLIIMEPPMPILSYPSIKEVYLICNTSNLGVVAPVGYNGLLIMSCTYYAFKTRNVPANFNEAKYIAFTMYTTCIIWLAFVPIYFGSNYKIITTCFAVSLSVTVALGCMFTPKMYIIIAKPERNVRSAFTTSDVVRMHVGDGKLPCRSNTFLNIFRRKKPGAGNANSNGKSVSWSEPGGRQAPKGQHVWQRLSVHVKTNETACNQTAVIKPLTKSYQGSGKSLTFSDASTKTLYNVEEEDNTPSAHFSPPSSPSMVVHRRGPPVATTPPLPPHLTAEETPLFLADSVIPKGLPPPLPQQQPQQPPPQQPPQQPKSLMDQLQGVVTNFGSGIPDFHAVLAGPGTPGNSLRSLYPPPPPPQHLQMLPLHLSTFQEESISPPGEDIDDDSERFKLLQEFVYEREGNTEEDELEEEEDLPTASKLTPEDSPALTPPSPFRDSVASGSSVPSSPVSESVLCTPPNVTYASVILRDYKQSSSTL

Take `O=S(=O)(c1ccc(Cl)cc1)c1sc2nc(O)ccc2c1-c1ccc(Cl)cc1` [Compound 1, 2-(4-Chloro-Benzenesulfonyl)-3-(4-Chloro-Phenyl)-7H-Thieno[2,3-b]Pyridin-6-One]: the inhibition constant (Ki) on mGluR1 is greater than 500 nM; at mGluR5 it was less than 500 nM. `N#Cc1cccc(S(=O)(=O)c2sc3nc(O)ccc3c2-c2ccc(Cl)cc2)c1` [Compound 2, 3-[3-(4-chloro-phenyl)-6-oxo-6,7-dihydro-thieno[2,3-b]pyridin-2-sulfonyl]-benzonitrile]: the inhibition constant (Ki) on mGluR1 and at mGluR5 was less than 500 nM in each case. For `O=C(OCc1ccc(F)cc1)c1sc2[nH]c(=O)ccc2c1-c1ccc(Cl)cc1` [Compound 3, 3-(4-chloro-phenyl)-6-oxo-6,7-dihydro-thieno[2,3-b]pyridine-2-carboxylic acid 4-fluoro-benzyl ester], the Ki at mGluR1 and at mGluR5 was less than 500 nM each time.

Consider `Cc1cccc(S(=O)(=O)c2sc3[nH]c(=O)ccc3c2-c2ccc(Cl)cc2)c1` [Compound 4, 3-(4-chloro-phenyl)-2-(toluene-3-sulfonyl)-7H-thieno[2,3-b]pyridin-6-one], for which, on mGluR5, the Ki is greater than 500 nM.
